From ChEMBL document CHEMBL5393453, “Compositions and methods of using the same for treatment of neurodegenerative and mitochondrial disease” (2021)

How the values were obtained:
[1] = Cytotoxicity against human HeLa cells expressing YFP parkin assessed as highest safety dose by DAPI staining analysis; assay type: toxicity, cell-based; details: read-out: Activity
[2] = Cytotoxicity against human HeLa cells expressing YFP parkin treated with FCCP/ oligomycin assessed as highest safety dose by DAPI staining analysis; assay type: toxicity, cell-based; details: read-out: Activity

Row | Compound | MNTC [1] | MNTC [2]
1 | C[C@@H]1CN([C@H]2COc3cc(F)ccc3[C@@H]2Nc2ncnc3[nH]c(C4CC4)cc23)C[C@H](C)O1 (single isomer, unassigned) | 25 µM | 2 µM
2 | FC(F)(F)c1cc2c(N[C@@H]3c4ccccc4OC[C@H]3C3CCOCC3)ncnc2[nH]1 (single isomer, unassigned) | 25 µM | 4.7 µM
3 | C[C@H]1CN([C@@H]2COc3ccccc3[C@H]2Nc2ncnc3[nH]c(C(F)(F)F)cc23)CCO1 | 19.4 µM | 19.4 µM
4 | COC[C@@H]1CCN(C2COc3ccccc3C2Nc2ncnc3[nH]c(C4CC4)cc23)C1 (single isomer, unassigned) | 25 µM | 1.4 µM
5 | CO[C@@H]1CCN([C@H]2COc3ccccc3[C@@H]2Nc2ncnc3[nH]c(C(F)(F)F)cc23)C1 | 25 µM | 3.4 µM
6 | C[C@H]1CN([C@@H]2COc3cc(F)ccc3[C@H]2Nc2ncnc3[nH]c(C4CC4)cc23)CCO1 | 25 µM | 7.4 µM
7 | FC(F)(F)c1cc2c(N[C@@H]3c4ccccc4CC[C@H]3N3C[C@H]4COC[C@H]4C3)ncnc2[nH]1 (single isomer, unassigned) | 25 µM | 9.1 µM
8 | FC(F)(F)c1cc2c(NC3c4ccccc4OCC3N3C[C@H]4COC[C@@H]4C3)ncnc2[nH]1 (some centres undefined) | 25 µM | 25 µM
9 | C[C@@H]1CN([C@@H]2COc3ccccc3[C@H]2Nc2ncnc3[nH]c(C(F)(F)F)cc23)C[C@H](C)O1 | 25 µM | 2.3 µM
10 | [2H]C([2H])([2H])OC1CN([C@H]2COc3ccccc3[C@@H]2Nc2ncnc3[nH]c(C(F)(F)F)cc23)C1 | 25 µM | 19.8 µM
11 | Fc1ccc2c(c1)CC[C@H](N1C[C@H]3COC[C@H]3C1)[C@H]2Nc1ncnc2[nH]c(C3CC3)cc12 | 25 µM | 10.3 µM
12 | COC[C@@H]1CCN([C@H]2COc3ccccc3[C@@H]2Nc2ncnc3[nH]c(C(F)(F)F)cc23)C1 (single isomer, unassigned) | 25 µM | 3.3 µM
13 | C[C@@H]1CN([C@H]2CCc3ccccc3[C@@H]2Nc2ncnc3[nH]c(C(F)(F)F)cc23)CCO1 (single isomer, unassigned) | 25 µM | 3.7 µM
14 | COC[C@H]1CCN([C@H]2COc3ccccc3[C@@H]2Nc2ncnc3[nH]c(C(F)(F)F)cc23)C1 (single isomer, unassigned) | 25 µM | 4.5 µM
15 | C[C@@H]1CN([C@@H]2COc3cc(F)ccc3[C@H]2Nc2ncnc3[nH]c(C4CC4)cc23)C[C@H](C)O1 | 25 µM | 1.2 µM
16 | C[C@@H]1CN([C@@H]2COc3ccccc3[C@H]2Nc2ncnc3[nH]c(C(F)(F)F)cc23)CCO1 | 25 µM | 9.7 µM
17 | C[C@@H]1CN([C@H]2COc3ccccc3[C@@H]2Nc2ncnc3[nH]c(C4CC4)cc23)C[C@H](C)O1 (single isomer, unassigned) | 25 µM | 2.3 µM
18 | C[C@@H]1CN([C@H]2COc3cc(F)ccc3[C@@H]2Nc2ncnc3[nH]c(C4CC4)cc23)CCO1 | 16.7 µM | 2 µM
19 | Fc1ccc2c(c1)CC[C@@H](N1C[C@H]3COC[C@H]3C1)[C@@H]2Nc1ncnc2[nH]c(C(F)(F)F)cc12 (single isomer, unassigned) | 8.3 µM | 8.3 µM
20 | CO[C@H]1CCN([C@H]2COc3ccccc3[C@@H]2Nc2ncnc3[nH]c(C4CC4)cc23)C1 | 25 µM | 1.1 µM
21 | COC1CN([C@H]2COc3ccccc3[C@@H]2Nc2ncnc3[nH]c(C(F)(F)F)cc23)C1 | 8.3 µM | 8.3 µM
22 | c1ccc2c(c1)OC[C@@H](C1CCOCC1)[C@@H]2Nc1ncnc2[nH]c(C3CC3)cc12 | 25 µM | 3.2 µM

Row | Compound | MNTC [1] | MNTC [2]
23 | C[C@@H]1CN([C@H]2COc3cc(F)ccc3[C@@H]2Nc2ncnc3[nH]c(C(F)(F)F)cc23)C[C@H](C)O1 (single isomer, unassigned) | 25 µM | 9.9 µM
24 | Fc1ccc2c(c1)CC[C@H](N1C[C@H]3COC[C@@H]3C1)[C@H]2Nc1ncnc2[nH]c(C(F)(F)F)cc12 | 25 µM | 9.1 µM
25 | C[C@@H]1CN([C@@H]2COc3cc(F)ccc3[C@H]2Nc2ncnc3[nH]c(C(F)(F)F)cc23)C[C@H](C)O1 | 25 µM | 2.2 µM
26 | FC(F)(F)c1cc2c(N[C@H]3c4ccccc4OC[C@@H]3N3C[C@H]4COC[C@H]4C3)ncnc2[nH]1 | 25 µM | 25 µM
27 | C[C@@H]1CN([C@@H]2COc3ccccc3[C@H]2Nc2ncnc3[nH]c(C4CC4)cc23)CCO1 | 25 µM | 1.7 µM
28 | Fc1ccc2c(c1)CC[C@H](N1C[C@@H]3COC[C@H]3C1)[C@H]2Nc1ncnc2[nH]c(C3CC3)cc12 | 25 µM | 25 µM
29 | C[C@@H]1CN([C@H]2CCc3ccccc3[C@@H]2Nc2ncnc3[nH]c(C4CC4)cc23)CCO1 (single isomer, unassigned) | 25 µM | 1.3 µM
30 | Fc1ccc2c(c1)OC[C@@H](N1C[C@H]3COC[C@H]3C1)[C@@H]2Nc1ncnc2[nH]c(C3CC3)cc12 | 25 µM | 16 µM
31 | c1ccc2c(c1)CC[C@H](N1C[C@@H]3COC[C@H]3C1)[C@H]2Nc1ncnc2[nH]c(C3CC3)cc12 | 25 µM | 3 µM
32 | COC1CN([C@H]2COc3ccccc3[C@@H]2Nc2ncnc3[nH]c(C4CC4)cc23)C1 | 25 µM | 25 µM
33 | C[C@@H]1CN([C@H]2COc3ccccc3[C@@H]2Nc2ncnc3[nH]c(C(F)(F)F)cc23)C[C@H](C)O1 (single isomer, unassigned) | 25 µM | 7.1 µM
34 | c1ccc2c(c1)CC[C@H](N1CCOCC1)[C@H]2Nc1ncnc2[nH]c(C3CC3)cc12 | 25 µM | 2.8 µM
35 | c1ccc2c(c1)CC[C@@H](N1CCOCC1)[C@@H]2Nc1ncnc2[nH]c(C3CC3)cc12 (single isomer, unassigned) | 25 µM | 25 µM
36 | C[C@H]1CN([C@H]2CCc3ccccc3[C@@H]2Nc2ncnc3[nH]c(C4CC4)cc23)CCO1 (single isomer, unassigned) | 25 µM | 3.5 µM
37 | FC(F)(F)c1cc2c(NC3c4ccccc4OCC3N3C[C@@H]4COC[C@H]4C3)ncnc2[nH]1 (some centres undefined) | 25 µM | 25 µM
38 | CO[C@H]1CCN([C@H]2COc3ccccc3[C@@H]2Nc2ncnc3[nH]c(C(F)(F)F)cc23)C1 | 25 µM | 1.1 µM
39 | FC(F)(F)c1cc2c(N[C@H]3c4ccccc4OC[C@H]3C3CCCOC3)ncnc2[nH]1 (mixture of isomers) | 25 µM | 25 µM
40 | FC(F)(F)c1cc2c(N[C@@H]3c4ccccc4OC[C@@H]3C3CCCOC3)ncnc2[nH]1 (single isomer, unassigned) | 25 µM | 25 µM
41 | C[C@H]1CN([C@H]2COc3cc(F)ccc3[C@@H]2Nc2ncnc3[nH]c(C4CC4)cc23)CCO1 | 25 µM | 
42 | CO[C@@H]1CCN([C@@H]2COc3ccccc3[C@H]2Nc2ncnc3[nH]c(C(F)(F)F)cc23)C1 | 25 µM | 
43 | FC(F)(F)c1cc2c(N[C@H]3c4ccccc4OC[C@@H]3C3CCCOC3)ncnc2[nH]1 (single isomer, unassigned) | 25 µM | 
44 | c1ccc2c(c1)OC[C@@H](N1CCOCC1)[C@@H]2Nc1ncnc2[nH]c(C3CC3)cc12 (single isomer, unassigned) | 25 µM | 
